Source: patent publication US20080200403A1, “9A-Carbamoyl and Thiocarbamoyl Azalides with Anti-Inflammatory Activity” (GLAXOSMITHKLINE, priority 2005, published 2008)
Read-outs that look alike come from different tables or passages of the source.

Key:
A549 = test: MTT cytotoxicity assay on A549 cell line; format: cell-based
Description: To determine whether the anti-inflammatory activity of the test compounds was due to observed inhibition of cytokine production and inhibition of proliferation in vitro, and was not a consequence of cellular cytotoxicity, measurement of succinate dehydrogenase activity in living cells was performed. Cells were cultured for 24 h in RPMI medium as described above at 37° C. in the presence of the test compounds at concentrations of 50 μM and 12.5 μM. MTT [3-(4,5-dimethylthiazole-2-yl)-2,5-diphenyl tetrazolium bromide] (Promega, USA), a detection reagent, was then added and the cultures were incubated for 0.5-2 h. The amount of MTT-Formazan produced was determined using a spectrophotometer at 490 nm (Mosmann, J. Imnunol. Methods, 1983, 65: 55-63). Percentage of viable cells was calculated using the following formula:
% viable cells=([…]OD490 treated cells/OD490 nontreated cells)×100

Male BALB/cJ mice = test: Lung neutrophilia induced by bacterial lipopolysaccharide in male BALB/cJ mice; format: in vivo; details: single 5 mg dose i.p., intranasal LPS, BALF about 24 hours after LPS, compared to positive control
Description: Male BALB/cJ mice (Iffa Credo, France), with average weight ˜30 g were randomly grouped (n=7 in testing group, 8 in positive control, 7 in negative control). Mice were administered intraperitoneally (i.p.) a single 5 mg dose of test compound. Two hours after administration, 2 μg of bacterial lipopolysaccharide (LPS), dissolved in PBS in a volume of 60 μL, was intranasally administered to all experimental groups except the negative control group, which received the same volume (60 μL) of vehicle PBS. Animals were sacrificed approximately 24 hours after application of LPS in order to obtain bronchoalveolar lavage fluid (BALF), which was used to determine concentrations of IL-6 and TNF-α, absolute number of cells, and the percentage of neutophils in BALF. Results are expressed as percentage of decrease of total cell number, relative number of neutrophils, and TNF-α and IL-6 concentration in BALF of treated animals compared to positive control (LPS stimulated, but untreated animals).
Besides accumulation of inflammatory cells in BALF, the extent and anatomic site of pulmonary inflammation induced by LPS was assessed 24 hours after PBS or LPS exposure. Accumulation of granulocytes and mononuclear cells in peribronchial (PB) and perivascular (PV) lung tissue areas and in alveolar spaces was monitored following sacrifice of the animals.

TNF-α = test: Lipopolysaccharide induced TNF-α production in Balb/cJ mice; format: in vivo; details: LPS stimulated Balb/cJ mice, 10 mg/kg b.w. intraperitoneally, plasma 90 min after challenge
Description: Male Balb/cJ mice (Iffa Credo, France), 18 animals weighing 25-33 g were randomly grouped (7 animals were treated with the test compounds, 7 were in positive control and 4 in negative control). Substances, as well as vehiculum [0.125% carboxymethyl-cellulose (Sigma, USA)], were administered intraperitoneally. Substances were administered in the dose of 10 mg/kg b.w. Administered volume was 10 mL/kg b.w. Thirty minutes later, lipopolysaccharide (LPS) (Sigma, USA) solution in sterile saline at concentration and volume of 25 μg/0.2 mL of sterile saline/mouse was intraperitoneally administered to each animal except those in negative control. Ninety minutes after the challenge all animals were bled to death by puncturing a carotis communis. Plasma concentration of TNF-α was determined by sandwich ELISA, using capture and detection antibodies (R&D, USA) according to manufacturer's recommendations. Results are presented in the following table as % of inhibition of TNF-α production in comparison to positive control (challenged but not treated animals).

human granulocytes = test: Oxidative burst inhibition assay on granulocytes (luminol); format: cell-based; details: Homo sapiens; for inhibition at 12.5 µM: compound 12.5 μM; for inhibition at 50 µM: compound 50 μM
Description: Granulocytes were obtained from heparinized whole blood using density gradient centrifugation. Erythrocytes were sedimented on 3% dextran T-500 (Amersham Pharmacia Biotech AB, Uppsala, Sweden). Leukocytes were centrifuged on Ficoll (Amersham Pharmacia Biotech AB, Uppsala, Sweden) for 35 min at 600 g at 20° C. The pellet of granulocytes was cleared from remaining erythrocytes by a brief hypotonic lysis.
The effect of compounds on oxidative burst was investigated in vitro with oxidative burst assay in human granulocytes, isolated as described above. Assay was done in 96 well plate. Blood was obtained from healthy volunteers (Transfusion Center, Croatia) and human granulocytes were isolated by dextran sedimentation and ficoll extraction method, as described above. In each well 50000 isolated granulocytes were suspended in 100 μL of DMEM. Final concentrations of the tested compounds were 50 and 12.5 μM. Than, 50 μL of luminol (c=0.25 mg/mL) was added. Luminol as a detector of oxidative burst react with superoxide and light is produced as one of the reaction products. Subsequently, 50 μL of stimuli, phorbol-12-myristate acetate (PMA) (c=33 ng/mL) or Zymosan (c=120 μg/mL), were added.

IL-5 = test: Inhibition of IL-5 production by stimulated human PBMC in vitro; format: cell-based; details: PHA stimulated, 3 days
Description: (§1) Heparinized peripheral blood was obtained from healthy donors, and peripheral blood mononuclear cells (PBMC) were isolated by Histopaque 1077 (Sigma, USA) density centrifugation on 400 g for 30 minutes. Collected PBMC were centrifuged in plasma on 400 g/10 min, resuspended and washed in RPMI 1640 (Institute of Immunology, Croatia) by centrifugation.
(§2) Peripheral blood mononuclear cells (PBMC), isolated as described above, were seeded in a 48-well plate at a concentration of 1×10^6 cells per well in the RPMI culture medium described above. Cells were stimulated with 10 μg/mL phytohaemagglutinin (PHA) (Sigma, USA) and incubated at 37° C., 5% CO2 in 90% humidity with tested compounds (10 and 50 μM) for 3 days. Cytokine concentrations were determined in supernatants by sandwich ELISA, using capture and detection antibodies (R&D, USA) according to the manufacturer's recommendations.
(§3) Inhibition (as percentage) was calculated using the following formula: % inhibition=(1−concentration of cytokines in sample/concentration of cytokines in positive control)×100. The positive control refers to stimulated samples, not treated with substances.

IL-2 = test: Inhibition of IL-2 production by stimulated human PBMC in vitro; format: cell-based; details: PHA stimulated, 3 days
Description: as §1, §2, §3

[1] = PMA stimulated granulocytes, read-out: % inhibition of Oxidative burst PMA
[2] = Zymosan stimulated granulocytes, read-out: % inhibition of Oxidative burst Zymosan

| SMILES | Percentage of viable cells after treatment (A549; human, 24 h, 12.5 μM) [%] | Percentage of viable cells after treatment (A549; human, 24 h, 50 μM) [%] | percentage of decrease of IL-6 concentration in BALF (Male BALB/cJ mice) | percentage of decrease of TNF-α concentration in BALF (Male BALB/cJ mice) | percentage of decrease of relative number of neutrophils (% of neutrophils) in BALF (Male BALB/cJ mice) | percentage of decrease of total cell number in BALF (Male BALB/cJ mice) | TNF-α (% inhibition) (TNF-α) [%] | inhibition at 12.5 µM (human granulocytes; [1]) [%] | inhibition at 50 µM (human granulocytes; [1]) [%] | inhibition at 12.5 µM (human granulocytes; [2]) [%] | inhibition at 50 µM (human granulocytes; [2]) [%] | Percentage of inhibition of IL-5 production (IL-5; compound 10 μM) [%] | Percentage of inhibition of IL-5 production (IL-5; compound 50 μM) [%] | Percentage of inhibition of IL-2 production (IL-2; compound 10 μM) [%] | Percentage of inhibition of IL-2 production (IL-2; compound 50 μM) [%] | further results |
| --- | --- | --- | --- | --- | --- | --- | --- | --- | --- | --- | --- | --- | --- | --- | --- | --- |
| CC[C@H]1OC(=O)[C@H](C)[C@@H](O[C@H]2C[C@@](C)(OC)[C@@H](O)[C@H](C)O2)[C@H](C)[C@@H](O[C@@H]2O[C@H](C)C[C@H](N(C)C)[C@H]2O)[C@](C)(O)C[C@@H](C)CN(C)[C@H](C)[C@@H](O)[C@]1(C)O [Azithromycin, azithromycin, reference compound] | 100 | 100 | 72 | 66 | 37 | 77 | 54 | 0 | 20 | 0 | 16 | – | – | – | – | – |
| CC[C@H]1OC(=O)[C@H](C)[C@@H](O[C@H]2C[C@@](C)(OC)[C@@H](O)[C@H](C)O2)[C@H](C)[C@@H](O[C@@H]2O[C@H](C)C[C@H](N(C)C)[C@H]2O)[C@](C)(OC)C[C@@H](C)C(=O)[C@H](C)[C@@H](O)[C@]1(C)O [Clarithromycin, clarithromycin, reference compound] | 100 | 100 | 60 | 78 | 36 | 77 | 63 | 0 | 3 | 4 | 19 | – | – | – | – | inhibition at 10 µM (IL-5; Homo sapiens, 72 h, compound 10 μM, read-out: Percentage of inhibition of IL-5 production): 13%; inhibition at 50 µM (IL-5; Homo sapiens, 72 h, compound 50 μM, read-out: Percentage of inhibition of IL-5 production): 47%; inhibition at 10 µM (IL-2; Homo sapiens, 72 h, compound 10 μM, read-out: Percentage of inhibition of IL-2 production): 0%; inhibition at 50 µM (IL-2; Homo sapiens, 72 h, compound 50 μM, read-out: Percentage of inhibition of IL-2 production): 3% |
| CCC1OC(=O)C(C)C(O)C(C)C(OC2OC(C)CC(N(C)C)C2O)C(C)(O)CC(C)CN(C(=S)NCc2ccccc2)C(C)C(O)C1(C)O (stereo not shown) [Compound 1] | – | – | 28 | 41 | 9 | 50 | 31 | – | – | – | – | 14 | 73 | 61 | 95 | – |
| CCC1OC(=O)C(C)C(OC2CC(C)(OC)C(O)C(C)O2)C(C)C(OC2OC(C)CC(N(C)C)C2O)C(C)(O)CC(C)CN(C(=S)Nc2cccc(F)c2)C(C)C(O)C1(C)O (stereo not shown) [Compound 3] | – | – | – | – | – | – | 29 | – | – | – | – | 80 | 78 | 86 | 98 | Percentage of viable cells after treatment (A549; A549, 24 h, compound 12.5 μM): 100%; Percentage of viable cells after treatment (A549; A549, 24 h, compound 50 μM): >90% |
| CC[C@H]1OC(=O)[C@H](C)[C@@H](O[C@H]2C[C@@](C)(OC)[C@@H](O)[C@H](C)O2)[C@H](C)[C@@H](O[C@@H]2O[C@H](C)C[C@H](N(C)C)[C@H]2O)[C@](C)(O)C[C@@H](C)CN(C(=S)Nc2cccc(C(F)(F)F)c2)[C@H](C)[C@@H](O)[C@]1(C)O [Compound 4] | – | – | – | – | – | – | – | 16 | 85 | 0 | 100 | – | – | – | – | – |
| CC[C@H]1OC(=O)[C@H](C)[C@@H](O[C@H]2C[C@@](C)(OC)[C@@H](O)[C@H](C)O2)[C@H](C)[C@@H](O[C@@H]2O[C@H](C)C[C@H](N(C)C)[C@H]2O)[C@](C)(O)C[C@@H](C)CN(C(=S)Nc2ccccc2F)[C@H](C)[C@@H](O)[C@]1(C)O [Compound 5] | 100 | 100 | – | – | – | – | 50 | – | – | – | – | – | – | – | – | – |
